Source: patent publication US10835456B2, “Propyl gallate-containing vitamin preparations” (BASF SE, priority 2016, dated 2020)
Several values for one entry are separate records, joined by “and”; a condition that tells them apart may be missing. Identical values can stand only once.

Columns and labels:
Type in all cases: physicochemical
[1] = Stress test: stability in premix mixture, stored at 40° C. and 70% humidity for 4 weeks, retention of vitamin content; settings: for Retention Active ingredient content after 4-week premix test: Table 3b
Procedure: The stress test for the vitamins is configured such that specimens of 100 mg in each case of the formulation produced and 4 g of premix mixture are weighed into glass vessels. The premix mixture consists of 50% by weight of fine lime (particle size <1000 μm), 20% by weight of wheat bran (particle size <1000 μm), 20% by weight of 50% silica-supported choline chloride (particle size <1000 μm) and 10% by weight of trace element mixture (particle size 100-500 μm). The trace element mixture is composed of 46.78% by weight of FeSO4x7H2O (100-500 μm), 37.43% by weight of CuSO4x5H2O (100-500 μm), 11.79% by weight of ZnO (<500 μm), 3.61% by weight of MnO and 0.39% by weight of CoCO3. After addition of all ingredients, the specimens are mixed cautiously, with performance of the mixing mechanically or else by hand, and these specimens (A) are stored in a climate-controlled chamber at 40° C. and 70% humidity for 4 weeks. […]
For this purpose, specimens each of 100 mg of the formulation produced and 4 g of premix mixture are weighed out in glass vessels (50 mL glass vials). The premix mixture consists of 50% by weight of fine lime (particle size <1000 μm), 20% by weight of wheat bran (particle size <1000 μm), 20% by weight of 50% silica-supported choline chloride (particle size <1000 μm) and 10% by weight of trace element mixture (particle size 100-500 μm), said trace element mixture consisting of 46.78% by weight of FeSO4x7H2O (100-500 μm), 37.43% by weight of CuSO4x5H2O (100-500 μm), 11.79% by weight of ZnO (<500 μm), 3.61% by weight of MnO and 0.39% by weight of CoCO3. After addition of all ingredients, the specimens are mixed cautiously, where the mixing can be performed mechanically or else by hand, and these specimens (A) are stored in a climate-controlled chamber at 40° C. and 70% humidity for 4 weeks. An identical test is conducted with a comparative sample (B) which is of identical composition but which comprises, rather than propyl gallate, the same amount of ethoxyquin. […] The ratio of the contents after (A2), (B2) and before the storage (A1) and (B1) are used here to calculate the retention (A2/A1) or (B2/B1) of the samples. For the formulations of the invention, a quotient (A2/A1):(B2/B1) of at least 0.75 is determined here. Preferably, for the formulations of the invention, a quotient of at least 1 is obtained.
The stability of the particles thus produced was tested in a stress test. For this purpose, specimens each of 100 mg of the particles produced and 4 g of premix mixture were weighed into 50 mL glass bottles. The premix mixture consisted of 50% by weight of fine lime (particle size <1000 μm), 20% by weight of wheat bran (particle size <1000 μm), 20% by weight of 50% silica-supported choline chloride (particle size <1000 μm) and 10% by weight of trace element mixture (particle size 100-500 μm), and the trace element mixture of 46.78% by weight of FeSO4x7H2O (100-500 μm), 37.43% by weight of CuSO4x5H2O (100-500 μm), 11.79% by weight of ZnO (<500 μm), 3.61% by weight of MnO and 0.39% by weight of CoCO3. After addition of all ingredients, the specimens were carefully mixed by hand. These specimens were stored in a climate-controlled chamber at 40° C. and 70% air humidity for 4 weeks. […]

[2] = Particle size after dissolution in water by photon correlation spectroscopy (Malvern Zetasizer Nano ZSP); settings: PCS; for particle size / polydispersity index PDI: dry powder with propyl gallate added to the dispersion (Examples 1, 3b, 3c, 3d)
Procedure: The particle size is determined by means of a Malvern Zetasizer Nano ZSP.
30 g of citranaxanthin were suspended in 240 g of isopropanol together with 1.1 g of ascorbyl palmitate and, with setting of the pressure-limiting valve to 30 bar, mixed continuously with 390 g of isopropanol in a mixing chamber A. At a metering rate of 6 L/h on the suspension side and of 9 L/h on the solvent side, a mixing temperature of 170° C. was established in the mixing chamber A. After a residence time of 0.3 second, the molecularly disperse solution was mixed in mixing chamber B with a solution of 32 g of gelatin, 71.4 g of sucrose and 50 g of glucose syrup in 4000 g of water at a throughput rate of 100 L/h. After the solvent had been removed under reduced pressure in a distillation apparatus, an active ingredient dispersion was obtained, to which 8 g of sunflower oil and 8 g of propyl gallate were added. The propyl gallate was predissolved here in 200 mL of water and adjusted to pH 7 with NaOH. Subsequently, the dispersion was converted to a stable, water-soluble dry powder by spray drying. After dissolution in water, by photon correlation spectroscopy (PCS), a particle size of 386 nm (standard deviation 142.5, polydispersity index PDI 0.185, D(95): 660 nm) was measured (Malvern Zetasizer Nano ZSP).

[3] = as above; settings: PCS
[4] = Table 4b, D,L-α tocopherol 4% by wt. (in active ingredient phase) + propyl gallate 4% by wt. (in protective colloid phase)
[5] = Table 4b, mixed tocopherol 4% by wt. (in active ingredient phase) + propyl gallate 4% by wt. (in protective colloid phase)
[6] = dry powder with 4% by weight of propyl gallate and 4% by weight of butylhydroxytoluene
[7] = dry powder with 4% by weight of propyl gallate and 4% by weight of mixed tocopherol

## CC1=C(/C=C/C(C)=C/C=C/C(C)=C/C=C/C=C(C)/C=C/C=C(C)/C=C/C2=C(C)C(=O)CCC2(C)C)C(C)(C)CCC1=O [Canthaxanthin]
[1]; propyl gallate 4%, dispersion
  Retention Active ingredient content after 4-week premix test: 61.2%
[1]; propyl gallate 6%, dispersion
  Retention Active ingredient content after 4-week premix test: 77.9%
[1]; propyl gallate 8%, dispersion
  Retention Active ingredient content after 4-week premix test: 83.3%
[1]; propyl gallate 9%, dispersion
  Retention Active ingredient content after 4-week premix test: 82.4%
[1]; propyl gallate 10%, dispersion
  Retention Active ingredient content after 4-week premix test: 69.8%
[1]; propyl gallate 12%, dispersion
  Retention Active ingredient content after 4-week premix test: 47.2%
[1]; Table 4a, D,L-α tocopherol 4% by wt., active ingredient phase
  Retention Active ingredient content after 4-week test: 45.7%
[1]; Table 4a, mixed tocopherol 4% by wt., active ingredient phase
  Retention Active ingredient content after 4-week test: 48.7%
[1]; [4]
  Retention Active ingredient content after 4-week test: 57.2%
[1]; [5]
  Retention Active ingredient content after 4-week test: 78.1%
[1]; Table 5a, propyl gallate 0% by wt., mixed tocopherol 4% by wt.
  Retention Canthaxanthin after 4-week test: 48.7%
[1]; Table 5a, propyl gallate 4% by wt., mixed tocopherol 0% by wt.
  Retention Canthaxanthin after 4-week test: 61.2%
[1]; Table 5a, propyl gallate 4% by wt., mixed tocopherol 2% by wt.
  Retention Canthaxanthin after 4-week test: 80.8%
[1]; Table 5a, propyl gallate 4% by wt., mixed tocopherol 4% by wt.
  Retention Canthaxanthin after 4-week test: 80.3%
[1]; Table 5a, propyl gallate 6% by wt., mixed tocopherol 0% by wt.
  Retention Canthaxanthin after 4-week test: 71.3%
[1]; Table 5a, propyl gallate 8% by wt., mixed tocopherol 0% by wt.
  Retention Canthaxanthin after 4-week test: 83.3%
[1]; Table 5b, propyl gallate 4% by wt. (in protective colloid phase pH 7), mixed tocopherol 1% by wt. (in active ingredient phase)
  Retention Canthaxanthin after 4-week test: 72.8%
[1]; Table 5b, propyl gallate 4% by wt. (in protective colloid phase pH 7), mixed tocopherol 2% by wt. (in active ingredient phase)
  Retention Canthaxanthin after 4-week test: 76%
[1]; Table 5b, propyl gallate 4% by wt. (in protective colloid phase pH 7), mixed tocopherol 4% by wt. (in active ingredient phase)
  Retention Canthaxanthin after 4-week test: 80.6%
[2]; dry powder with propyl gallate added to the dispersion (Examples 1, 3b)
  D(95): 594 nm
[2]
  particle size: 290 nm
  polydispersity index PDI: 0.193

## CC(=O)/C=C/C(C)=C/C=C/C(C)=C/C=C/C=C(C)/C=C/C=C(C)/C=C/C1=C(C)CCCC1(C)C [Citranaxanthin]
[3]; [6]
  particle size: 290 nm
  polydispersity index PDI: 0.180
[3]; [7]
  particle size: 280 nm
  polydispersity index PDI: 0.185
[1]; Table 3a, propyl gallate 0% by wt., dispersion
  Retention Active ingredient content after 4-week test: 7.9%
[1]; Table 3a, propyl gallate 2% by wt., dispersion
  Retention Active ingredient content after 4-week test: 20.2%
[1]; Table 3a, propyl gallate 3% by wt., dispersion
  Retention Active ingredient content after 4-week test: 26.7%
[1]; Table 3a, propyl gallate 4% by wt., dispersion
  Retention Active ingredient content after 4-week test: 47.8%
[1]; Table 3a, propyl gallate 5% by wt., dispersion
  Retention Active ingredient content after 4-week test: 45.7%
[1]; Table 3a, propyl gallate 6% by wt., dispersion
  Retention Active ingredient content after 4-week test: 45.9%
[1]; Table 3a, propyl gallate 7% by wt., dispersion
  Retention Active ingredient content after 4-week test: 49.5%
[1]; Table 3a, propyl gallate 8% by wt., dispersion
  Retention Active ingredient content after 4-week test: 55.9%
[1]; Table 3a, propyl gallate 8.5% by wt., dispersion
  Retention Active ingredient content after 4-week test: 51.9%
[1]; Table 3a, propyl gallate 9% by wt., dispersion
  Retention Active ingredient content after 4-week test: 57.4%
[1]; Table 3a, propyl gallate 10% by wt., dispersion
  Retention Active ingredient content after 4-week test: 19.6%
[1]; [4]
  Retention Active ingredient content after 4-week test: 21.3%
[1]; [5]
  Retention Active ingredient content after 4-week test: 67.5%
[1]; Table 5c, propyl gallate 0% by wt., mixed tocopherol 4% by wt.
  Retention Canthaxanthin after 4-week test: 10.8%
[1]; Table 5c, propyl gallate 4% by wt., mixed tocopherol 0% by wt.
  Retention Canthaxanthin after 4-week test: 39.1%
[1]; Table 5c, propyl gallate 4% by wt., mixed tocopherol 4% by wt.
  Retention Canthaxanthin after 4-week test: 66.5%
[1]; Table 5d, 4% by wt. of ethoxyquin
  Retention Canthaxanthin after 4-week test: 79.3%
[1]; Table 5d, propyl gallate 0% by wt., BHT 4% by wt.
  Retention Canthaxanthin after 4-week test: 56.1% and 65.5% and 67.9%
[1]; Table 5d, propyl gallate 4% by wt., BHT 0% by wt.
  Retention Canthaxanthin after 4-week test: 61.2%
[1]; Table 5d, propyl gallate 4% by wt., BHT 4% by wt.
  Retention Canthaxanthin after 4-week test: 82.3%
[1]; propyl gallate 4% by wt. added to dispersion in solid form without pre-dissolution
  Retention Active ingredient content after 4-week test: 47.2% and 44.9%
[1]; propyl gallate 4% by wt. added to dispersion, dissolved in water pH 7
  Retention Active ingredient content after 4-week test: 46% and 49.4% and 47.8%
[1]; propyl gallate 4% by wt. added to dispersion, pH of sprayed dispersion 4.5
  Retention (active constituent after 4 weeks in the test): 42.2%
[1]; propyl gallate 4% by wt. added to dispersion, pH of sprayed dispersion 6
  Retention (active constituent after 4 weeks in the test): 39.1%
[1]; propyl gallate 4% by wt. added to dispersion, pH of sprayed dispersion 7
  Retention (active constituent after 4 weeks in the test): 47.8%
[1]; propyl gallate 4% by wt. added to dispersion, pH of sprayed dispersion 8
  Retention (active constituent after 4 weeks in the test): 49.4%
[1]; propyl gallate 4% by wt. added to dispersion, pH of sprayed dispersion 9
  Retention (active constituent after 4 weeks in the test): 28.2%
[1]; propyl gallate 4% by wt. added to dispersion, pH of sprayed dispersion 10
  Retention (active constituent after 4 weeks in the test): 36.4%
[1]; propyl gallate 4% by wt. added to dispersion, pH of sprayed dispersion 11
  Retention (active constituent after 4 weeks in the test): 14.7%
[1]; propyl gallate 4% by wt. in colloid phase, pH of the colloid phase 8.5-9.5
  Retention Active ingredient content after 4-week test: 13.4%
[1]; propyl gallate 4% by wt. in colloid phase, pH preadjustment to 7, then adjustment to pH 8.5 at maximum
  Retention Active ingredient content after 4-week test: 44.1%

## CC1=C(/C=C/C(C)=C/C=C/C(C)=C/C=C/C=C(C)/C=C/C=C(C)/C=C/C2=C(C)CCCC2(C)C)C(C)(C)CCC1 [β-carotene]
[1]; Table 3d, ethoxyquin 4% by wt., dispersion
  Retention Active ingredient content after 4-week test: 22.2%
[1]; Table 3d, propyl gallate 4% by wt., dispersion
  Retention Active ingredient content after 4-week test: 30.3%
[2]
  particle size: 262 nm
  polydispersity index PDI: 0.268
